These compounds were tested against T1, WT BTK protein (Homo sapiens, UniProt Q06187) (assay: BTK protein degradation assay (Western blotting), WT BTK). Details: concentration range accounting for 50% degradation of WT BTK protein, TMD-8 or RAMOS cells, 24 hours.
T1 construct: measured for intracellular BTK protein levels by Western blotting; endogenous in cells; host or cells: TMD-8 or RAMOS cells
Format: cell-based
Outline: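 BTK levels were read by Western blotting (GAPDH and β-actin normalisers) in RIPA lysates of TMD-8 cells exposed to compounds for 24 h at 1×10^6 cells/mL. Results scored in ranges of the concentration producing 50% loss of WT BTK.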

T1 sequence (Q06187 whole entry): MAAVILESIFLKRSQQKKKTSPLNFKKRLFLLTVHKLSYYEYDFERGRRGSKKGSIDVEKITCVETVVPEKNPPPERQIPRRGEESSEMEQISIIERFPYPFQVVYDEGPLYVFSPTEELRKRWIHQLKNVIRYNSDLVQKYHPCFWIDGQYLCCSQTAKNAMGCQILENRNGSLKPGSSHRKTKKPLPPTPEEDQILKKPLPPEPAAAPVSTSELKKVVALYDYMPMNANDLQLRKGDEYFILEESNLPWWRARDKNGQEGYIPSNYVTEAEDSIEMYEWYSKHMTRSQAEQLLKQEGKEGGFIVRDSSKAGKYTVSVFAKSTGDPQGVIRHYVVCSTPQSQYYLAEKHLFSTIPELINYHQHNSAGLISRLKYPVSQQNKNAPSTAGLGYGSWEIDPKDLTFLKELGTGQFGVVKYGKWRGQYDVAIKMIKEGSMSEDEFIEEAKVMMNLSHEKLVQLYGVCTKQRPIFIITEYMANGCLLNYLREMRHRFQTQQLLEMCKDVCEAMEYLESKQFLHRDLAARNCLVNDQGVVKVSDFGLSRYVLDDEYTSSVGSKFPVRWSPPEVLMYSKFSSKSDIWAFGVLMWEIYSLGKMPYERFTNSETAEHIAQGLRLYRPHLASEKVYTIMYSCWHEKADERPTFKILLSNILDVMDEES

Row | SMILES | DC50 [nM]
1 | Cc1cccc(C)c1Nc1nn(C)c2nc(Nc3ccc(C4=CCN(CC5CCN(c6ccc7c(c6)C(=O)N(C6CCC(=O)NC6=O)C7=O)CC5)CC4)cc3)ncc12 (centres unmarked) [Compound 230, 5-(4-((4-(4-((3-((2,6-Dimethylphenyl)amino)-1-methyl-1H-pyrazolo[3,4-d]pyrimidin-6-yl)amino)phenyl)-3,6-dihydropyridin-1 (2H)-yl)methyl)piperidin-1-yl)-2-(2,6-dioxopiperidin-3-yl)isoindoline-1,3-dione] | 0.1 to 10
2 | Cc1cccc(C)c1Nc1nn(C)c2nc(Nc3ccc4c(c3)CN(C(=S)C3CCN(c5ccc6c(c5)C(=O)N(C5CCC(=O)NC5=O)C6=O)CC3)CC4)ncc12 (centres unmarked) [Compound 232, 5-(4-(7-((3-((2,6-dimethylphenyl)amino)-1-methyl-1H-pyrazolo[3,4-d]pyrimidin-6-yl)amino)-1,2,3,4-tetrahydroisoquinoline-2-carbonothioyl)piperidin-1-yl)-2-(2,6-dioxopiperidin-3-yl)isoindoline-1,3-dione] | 0.1 to 10
3 | Cc1cccc(C)c1Nc1nn(C)c2nc(Nc3ccc4c(c3)CN(C(=S)C3CCN(c5cc6c(cc5F)C(=O)N(C5CCC(=O)NC5=O)C6=O)CC3)CC4)ncc12 (centres unmarked) [Compound 233, 5-(4-(7-((3-((2,6-dimethylphenyl)amino)-1-methyl-1H-pyrazolo[3,4-d]pyrimidin-6-yl)amino)-1,2,3,4-tetrahydroisoquinoline-2-carbonothioyl)piperidin-1-yl)-2-(2,6-dioxopiperidin-3-yl)-6-fluoroisoindoline-1,3-dione] | 0.1 to 10
4 | Cc1cccc(C)c1Nc1nn(C)c2nc(Nc3ccc4c(c3)CN(C(=S)C3CCN(C(=O)C5CCN(c6ccc7c(c6)C(=O)N(C6CCC(=O)NC6=O)C7=O)CC5)CC3)CC4)ncc12 (centres unmarked) [Compound 234, 5-(4-(4-(7-((3-((2,6-dimethylphenyl)amino)-1-methyl-1H-pyrazolo[3,4-d]pyrimidin-6-yl)amino)-1,2,3,4-tetrahydroisoquinoline-2-carbonothioyl)piperidine-1-carbonyl)piperidin-1-yl)-2-(2,6-dioxopiperidin-3-yl)isoindoline-1,3-dione] | 0.1 to 10

Next, values leading:

Row | DC50 [nM] | SMILES
5 | 0.1 to 10 | Cc1cccc(C)c1Nc1nn(C)c2nc(Nc3ccc(C4CCN(C(=O)CC5CCN(c6ccc7c(c6)C(=O)N(C6CCC(=O)NC6=O)C7=O)CC5)CC4)c(F)c3)ncc12 (centres unmarked) [Compound 227, 5-(4-(2-(4-(4-((3-((2,6-dimethylphenyl)amino)-1-methyl-1H-pyrazolo[3,4-d]pyrimidin-6-yl)amino)-2-fluorophenyl)piperidin-1-yl)-2-oxoethyl)piperidin-1-yl)-2-(2,6-dioxopiperidin-3-yl)isoindoline-1,3-dione]
6 | 0.1 to 10 | Cc1cccc(C)c1Nc1nn(C)c2nc(Nc3ccc(C4CCN(C(=O)C5CN(c6ccc7c(c6)C(=O)N(C6CCC(=O)NC6=O)C7=O)C5)CC4)cc3)ncc12 (centres unmarked) [Compound 228, 5-(3-(4-(4-((3-((2,6-dimethylphenyl)amino)-1-methyl-1H-pyrazolo[3,4-d]pyrimidin-6-yl)amino)phenyl)piperidine-1-carbonyl)azetidin-1-yl)-2-(2,6-dioxopiperidin-3-yl)isoindoline-1,3-dione]
7 | 10 to 1000 | Cc1cccc(C)c1Nc1nn(C)c2nc(Nc3ccc(C4CCN(C(=O)C5CN(c6ccc7c(c6)C(=O)N(C6CCC(=O)NC6=O)C7=O)C5)CC4)c(F)c3)ncc12 (centres unmarked) [Compound 229, 5-(3-(4-(4-((3-((2,6-dimethylphenyl)amino)-1-methyl-1H-pyrazolo[3,4-d]pyrimidin-6-yl)amino)-2-fluorophenyl)piperidine-1-carbonyl)azetidin-1-yl)-2-(2,6-dioxopiperidin-3-yl)isoindoline-1,3-dione]
8 | 10 to 1000 | Cc1cccc(C)c1Nc1nn(C)c2nc(Nc3ccc(C4CCN(CC5CCN(c6ccc7c(c6)C(=O)N(C6CCC(=O)NC6=O)C7=O)CC5)CC4)cc3F)ncc12 (centres unmarked) [Compound 231, 5-(4-((4-(4-((3-((2,6-Dimethylphenyl)amino)-1-methyl-1H-pyrazolo[3,4-d]pyrimidin-6-yl)amino)-3-fluorophenyl)piperidin-1-yl)methyl)piperidin-1-yl)-2-(2,6-dioxopiperidin-3-yl)isoindoline-1,3-dione]
